Inconclusive results and toxic doses are left out. Rule for the calls: active = survival T/C of 150% or more; inactive = T/C below 125% in these data.
Test system: CD2F1 mice, L1210 leukemia ip, survival T/C
Assay: NCI In Vivo Anticancer Drug Screen. Data for tumor model L1210 Leukemia (intraperitoneal) in CD2F1 (CDF1) mice
Details: higher = longer survival
In short: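 In this screen, transplantable tumors were grown in mice given either the compound or its vehicle. Results were expressed as the treated measurement relative to the control measurement.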

[1] = endpoint: mean survival time, dose: 25.0 mg/kg/injection, schedule: Q01DX009 (ip), vehicle: saline with Tween-80
[2] = endpoint: mean survival time, dose: 50.0 mg/kg/injection, schedule: Q01DX009 (ip), vehicle: saline with Tween-80
[3] = endpoint: mean survival time, dose: 50.0 mg/kg/injection, schedule: Q04DX002 (ip), vehicle: saline with Tween-80
[4] = endpoint: mean survival time, dose: 100.0 mg/kg/injection, schedule: Q01DX009 (ip), vehicle: saline with Tween-80
[5] = endpoint: mean survival time, dose: 100.0 mg/kg/injection, schedule: Q04DX002 (ip), vehicle: saline with Tween-80
[6] = endpoint: mean survival time, dose: 200.0 mg/kg/injection, schedule: Q01DX009 (ip), vehicle: saline with Tween-80
[7] = endpoint: mean survival time, dose: 200.0 mg/kg/injection, schedule: Q04DX002 (ip), vehicle: saline with Tween-80
[8] = endpoint: mean survival time, dose: 100.0 mg/kg/injection, schedule: Q01DX009 (ip), vehicle: saline
[9] = endpoint: mean survival time, dose: 200.0 mg/kg/injection, schedule: Q01DX009 (ip), vehicle: saline
[10] = endpoint: mean survival time, dose: 400.0 mg/kg/injection, schedule: Q01DX009 (ip), vehicle: saline
[11] = endpoint: mean survival time, dose: 100.0 mg/kg/injection, schedule: Q04DX003 (ip), vehicle: saline
[12] = endpoint: mean survival time, dose: 200.0 mg/kg/injection, schedule: Q04DX003 (ip), vehicle: saline
[13] = endpoint: mean survival time, dose: 400.0 mg/kg/injection, schedule: Q04DX003 (ip), vehicle: saline
[14] = endpoint: mean survival time, dose: 100.0 mg/kg/injection, schedule: Q04DX003 (ip), vehicle: saline with Tween-80
[15] = endpoint: mean survival time, dose: 200.0 mg/kg/injection, schedule: Q04DX003 (ip), vehicle: saline with Tween-80
[16] = endpoint: mean survival time, dose: 400.0 mg/kg/injection, schedule: Q04DX003 (ip), vehicle: saline with Tween-80
[17] = endpoint: mean survival time, dose: 400.0 mg/kg/injection, schedule: Q01DX009 (ip), vehicle: saline with Tween-80

Measured: T/C

O=C(OCc1ccccc1)C1CC1
inactive: endpoint: mean survival time, dose: 25.0 mg/kg/injection, schedule: Q01DX005 (ip), vehicle: saline with Tween-80 89 % of control | [1] 96 % of control | endpoint: mean survival time, dose: 50.0 mg/kg/injection, schedule: Q01DX005 (ip), vehicle: saline with Tween-80 97 % of control | [2] 104 % of control | [3] 97 % of control | endpoint: mean survival time, dose: 100.0 mg/kg/injection, schedule: Q01DX005 (ip), vehicle: saline with Tween-80 93 % of control | [4] 100 % of control | [5] 102 % of control | endpoint: mean survival time, dose: 200.0 mg/kg/injection, schedule: Q01DX005 (ip), vehicle: saline with Tween-80 93 % of control | [6] 93 % of control | [7] 102 % of control

CO/N=C/C1OC(n2ccc(=O)[nH]c2=O)C2OC(C)(C)OC12 (stereo not drawn)
inactive: endpoint: median survival time, dose: 12.5 mg/kg/injection, schedule: Q01DX005 (ip), vehicle: Klucel (hydroxypropylcellulose) (HPC) 100 % of control | endpoint: median survival time, dose: 25.0 mg/kg/injection, schedule: Q01DX005 (ip), vehicle: Klucel (hydroxypropylcellulose) (HPC) 110 % of control | endpoint: median survival time, dose: 50.0 mg/kg/injection, schedule: Q01DX005 (ip), vehicle: Klucel (hydroxypropylcellulose) (HPC) 107 % of control | endpoint: median survival time, dose: 100.0 mg/kg/injection, schedule: Q01DX005 (ip), vehicle: Klucel (hydroxypropylcellulose) (HPC) 101 % of control

COc1ccc(N)cc1OC
inactive: [8] 96 % of control | [9] 102 % of control | [10] 98 % of control

S=C=NCCc1ccccc1
inactive: endpoint: mean survival time, dose: 3.12 mg/kg/injection, schedule: Q01DX009 (ip), vehicle: saline with Tween-80 93 % of control | endpoint: mean survival time, dose: 6.25 mg/kg/injection, schedule: Q01DX009 (ip), vehicle: saline with Tween-80 92 % of control | endpoint: mean survival time, dose: 12.5 mg/kg/injection, schedule: Q01DX009 (ip), vehicle: saline with Tween-80 106 % of control | [1] 104 % of control | [2] 106 % of control

C[CH2][Sn]1([CH2]C)[O]C2C(CO)OC(n3ccc(N)nc3=O)C2[O]1 (stereo not drawn)
inactive: endpoint: mean survival time, dose: 1.56 mg/kg/injection, schedule: Q01DX005 (ip), vehicle: water 97 % of control | endpoint: mean survival time, dose: 3.13 mg/kg/injection, schedule: Q01DX005 (ip), vehicle: water 111 % of control | endpoint: mean survival time, dose: 6.25 mg/kg/injection, schedule: Q01DX005 (ip), vehicle: water 100 % of control | endpoint: mean survival time, dose: 12.5 mg/kg/injection, schedule: Q01DX005 (ip), vehicle: other 103 % of control | endpoint: mean survival time, dose: 12.5 mg/kg/injection, schedule: Q01DX005 (ip), vehicle: water 105 % of control

O=C1O/C(=C\c2ccccc2)c2ccccc21
inactive: [11] 104 % of control | [12] 104 % of control | [13] 98 % of control

OC(Cc1cc(CC(O)(C(F)(F)F)C(F)(F)F)ncn1)(C(F)(F)F)C(F)(F)F
inactive: [14] 97 % of control | [15] 93 % of control | [16] 91 % of control

O=c1[nH]cc(C(O)Cc2ccccc2)c(=O)[nH]1 (stereo not drawn)
inactive: [4] 97 % of control | [14] 104 % of control | [6] 100 % of control | [15] 94 % of control | [17] 97 % of control | [16] 98 % of control

COC1=CCC2=C(C1)CC(C)O2 (stereo not drawn)
inactive: endpoint: mean survival time, dose: 100.0 mg/kg/injection, schedule: Q01DX009 (ip), vehicle: acetone 102 % of control | endpoint: mean survival time, dose: 200.0 mg/kg/injection, schedule: Q01DX009 (ip), vehicle: acetone 107 % of control

CCOP(=S)(OCC)OP(=S)(OCC)OCC
inactive: endpoint: mean survival time, dose: 4.0 mg/kg/injection, schedule: Q04DX003 (ip), vehicle: other 95 % of control

O=C(Nc1ccc2c3c(cccc13)CC2)c1ccccc1
inactive: [14] 95 % of control | [15] 97 % of control | [16] 92 % of control

CC(C)(N)C(=O)O
inactive: [4] 100 % of control | [6] 101 % of control | [17] 103 % of control

O=C(CCC1CC=CCC1)c1ccccc1 (stereo not drawn)
inactive: endpoint: mean survival time, dose: 25.0 mg/kg/injection, schedule: Q04DX002 (ip), vehicle: saline with Tween-80 111 % of control | [3] 96 % of control | [5] 90 % of control | [7] 93 % of control

CCCCC/C(C)=C(\C)c1cc(OC)cc(OC)c1
inactive: [4] 103 % of control | [6] 106 % of control | [17] 91 % of control

CC(C)=CC1C(C(=O)OCc2ccc(C)cc2C)C1(C)C (stereo not drawn)
inactive: endpoint: mean survival time, dose: 50.0 mg/kg/injection, schedule: Q01DX001 (ip), vehicle: saline 94 % of control | endpoint: mean survival time, dose: 100.0 mg/kg/injection, schedule: Q01DX001 (ip), vehicle: saline 91 % of control | [8] 96 % of control | [11] 87 % of control | [9] 96 % of control | [12] 87 % of control | endpoint: mean survival time, dose: 400.0 mg/kg/injection, schedule: Q01DX001 (ip), vehicle: saline 100 % of control | [10] 102 % of control | [13] 94 % of control

CCOC(=O)C(Cc1ccccc1Cl)(NC(C)=O)C(=O)OCC
inactive: [14] 100 % of control | [15] 102 % of control | [16] 91 % of control

CC12CCC3C4CCC(=O)C(O)=C4CCC3C1CCC2OC(=O)CCC1CCCC1 (stereo not drawn)
inactive: endpoint: mean survival time, dose: 100.0 mg/kg/injection, schedule: Q04DX003 (sc), vehicle: steriod suspending solution 101 % of control | endpoint: mean survival time, dose: 200.0 mg/kg/injection, schedule: Q04DX003 (sc), vehicle: steriod suspending solution 104 % of control | endpoint: mean survival time, dose: 400.0 mg/kg/injection, schedule: Q04DX003 (sc), vehicle: steriod suspending solution 104 % of control

c1cc2c(c(OCC3=NCCN3)c1)CCCC2
inactive: endpoint: mean survival time, dose: 25.0 mg/kg/injection, schedule: Q04DX002 (ip), vehicle: saline 94 % of control | endpoint: mean survival time, dose: 50.0 mg/kg/injection, schedule: Q04DX002 (ip), vehicle: saline 110 % of control

Source: PubChem BioAssay AID256 (DTP/NCI, 2004)
